Experiment [1] has as its system U. maydis strains FB1 and FB2. As to the kind of experiment: Maize seedling infection model, compound added to inoculum, symptom scoring 12 dpi. The format is in vivo, Ustilago maydis. Particulars: for inhibitory effect on virulence of U. maydis: 1 mM, 0.5 mM and 0.1 mM final concentration in the inoculum (Figure 2C); for virulence of U. maydis: 5 mM final concentration in the inoculum of FB1xFB2, first test of ten hits; for Retesting for an inhibition of virulence: U. maydis, retest of four compounds; for Severity of disease symptoms First infection: 4-7 plants per assay. Also on record: key to Severity of disease symptoms First infection / Severity of disease symptoms Second infection: Full virulence is symbolized by (XXXXX); XXX - slightly reduced virulence; XX - reduced virulence; x - strongly reduced virulence. On the procedure:
Compounds to be tested were added to the inoculum. Briefly, 6 day old maize seedlings were syringe-infected with about 0.5 ml of fungal suspension in H2O which was amended with the hit compound. The infection and symptoms assessment were done as described in Kämper et al., (Insights from the genome of the biotrophic fungal plant pathogen Ustilago maydis. Nature 2006, 444, 97-101). During the syringe-infection into the stem, the fungal-compound mix is dispersed between the rolled-up leaves and fills the leaf whorl. The compounds were applied only at the stage of mixing with the inoculum, which is subsequently diluted with existing apoplastic fluid, during the infection. In addition, compounds have to reach the Stp complex in biotrophic hyphae from the initial inoculum. […] Since compounds are dissolved in DMSO, the tolerance of U. maydis towards DMSO was tested by adding DMSO to the inoculum at concentrations between 10 and 50% final concentration.
Symptom scoring was done 12 days post infection (dpi) in case of U. maydis seedling infections. Symptom scoring occurred according to the categories described in Table 2. Table 2: Categories of virulence symptoms of U. maydis maize seedling infection (according to Kämper et al., 2006).

In the next experiment the test system is U. fabae. In words: Uromyces fabae - Vicia faba leaf infection, pustule formation versus DMSO leaflet. The format is in vivo. On the procedure: The Uromyces fabae - Vicia faba system was established by initially obtaining spores as well as broad bean seeds from the Institut für Phytomedizin at Hohenheim University, Germany. Briefly, Vicia faba plants (Bingenheimer Saatgut Frühe Weißkeimige, G142) were propagated in soil up to about the 4 leaf stage (2-3 plants per pot). Plants were transferred to a chamber lined with wet paper. 100 mg U. fabae spores were mixed with 160 mg skimmed milk powder in 200 ml sterile H2O. Tween 20 was added to a final concentration of 0.01 % and the mixture was stirred in the dark for 45 min. Leaves were sprayed with the suspension on both the upper and lower side and afterwards the entire compartment was fogged with H2O before closure and kept in the dark for 20 h. Plants were then gradually allowed to dry and were placed in a growth chamber under a light regime of 16 h light (24°C) and 8 h (20°C) dark until symptoms developed (10-12 days). Plants were tossed and spores were collected on underlying aluminum foil, and aliquots were frozen at -80°C.
For the infection with compounds added, 10 mg of U. fabae spores were mixed with 16 mg skimmed milk powder in 20 ml sterile H2O. Tween 20 was added to a final concentration of 0.01 % and the mixture was stirred in the dark for 45 min. Compounds were diluted to the desired concentration into in the spore suspension. The controls received the same amount of DMSO. Per bean plant, one pinnate leaf with two leaflets was selected and one of the leaflets was infected with spores + compound and the other with spores + DMSO, respectively. To this end leaves were lightly sprayed with H2O and the 100µl spore solution containing the compound or DMSO respectively was applied on the upper part of the using a small painting brush. Afterwards the plants were placed in a chamber lined with wet paper, fogged with H2O before closure and kept in the dark for 20 h. Plants were then gradually allowed to dry and were placed in a growth chamber under a light regime of 16 h light (24°C) and 8 h (20°C) dark until symptoms developed. The symptoms were quantified by using a previously described method (Sillero and Rubiales, 2002) with minor modifications. Comparisons of pustule formation were done as follow: leaf treated with spores plus DMSO (control) versus leaf treated with spores plus compound in DMSO (test). A single bifurcated leaf was used for this assay, and one half received the control and the other half receive spores with compound. Then it was determined whether pustule formation occurs or is inhibited. Leaves were scored for the development of brownish-red pustules. Only when brownish-red pustules containing powdery spores (urediniospores) appeared on the control leaf an infection was counted as valid. All compounds were tested in three biological replicates. Pictures were taken at 12-14 days post infection.

[2] abbreviates: 1 mM final concentration in the inoculum of Zea Mays (Figure 2A, B).
The mark [3] stands for this setting: 0.5 mM final concentration in the inoculum.
Setting [4] is: 1 mM final concentration in the inoculum of Vicia faba.
The mark [5] stands for this setting: 5 mM hit compound added to inoculum of FB1xFB2, Zea mays.

SMILES strings stand for the structures. Entries after “also recorded” stand apart in the source; their conditions may differ.

With `Cc1ccc(-c2c(-c3ccc(C)cc3)[n+]([O-])c3ccccn23)cc1` [Compound 1-A], the “Virulence inhibition of U. maydis” value in experiment [1] (setting [2]) is “able to reduce virulence”. Further, in experiment [1], the “inhibitory effect on virulence of U. maydis” value is given as “concentration dependent inhibitory effect”, the “virulence of U. maydis” value is on record as “significant reductions in virulence” and the “Retesting for an inhibition of virulence” value is “confirmed the results”. The “virulence inhibition of U. fabae (pustule formation)” value (shortened to “virulence inhibition of U. fabae”) in the experiment with U. fabae (setting [3]) was “developed symptoms”. In the experiment on U. fabae (setting [4]), the “virulence inhibition of U. fabae” value is on record as “able to inhibit pustule formation”.

Regarding `CC(C)n1ncc2cc(NS(=O)(=O)c3cc(F)ccc3F)cnc21` [Compound 1-B], the “Virulence inhibition of U. maydis” value in experiment [1] (0.5 mM final concentration, dilution series (Figure 7)) is reported as “negligible”; in experiment [1] (1 mM final concentration, dilution series (Figure 7)), “very strong; also recorded: very strongly”; in experiment [1] (5 mM final concentration, dilution series (Figure 7)), “very strong; also recorded: very strongly”. Besides, in experiment [1], the “virulence of U. maydis” value is “significant reductions in virulence”. The “Severity of disease symptoms First infection” value in experiment [1] (setting [5]) is “XX”. Also, the “Retesting for an inhibition of virulence” value in experiment [1] is listed as “confirmed the results”. Further, in the experiment on U. fabae (setting [4]), the “virulence inhibition of U. fabae” value is on record as “completely inhibited”.

In the case of `Cc1ccc(CSc2nc(=O)n(C3CCCC3)c3c2CCC3)cc1` [Compound 1-C], in experiment [1], the “virulence of U. maydis” value is listed as “significant reductions in virulence”. For the same compound, the “Severity of disease symptoms First infection” value in experiment [1] (setting [5]) is “XXX”. Moreover, the “Severity of disease symptoms Second infection” value in experiment [1] (5 mM hit compound added to inoculum of FB1xFB2, Zea mays, retest) is “XXX”. For the same compound, in experiment [1], the “Retesting for an inhibition of virulence” value is reported as “confirmed the results”. In addition, in experiment [1] (dilution series between 5 mM and 0.01 mM final concentration (Figure 5)), the “Virulence inhibition of U. maydis” value is reported as “concentration dependent; also recorded: strong inhibitory activity”. Further, the “virulence inhibition of U. fabae” value in the experiment with U. fabae (0.1 mM final concentration), with U. fabae (setting [3]) and with U. fabae (setting [4]) was “inhibited pustule formation” each time. Also, the “inhibitory activity on U. fabae virulence” value with U. fabae (Figure 6, concentration not given) is “strong inhibitory activity”.

As to `[O-][n+]1c(-c2ccc(C(F)(F)F)cc2)c(-c2ccc(C(F)(F)F)cc2)n2ccccc21` [Compound 2-A], the “Virulence inhibition of U. maydis” value in experiment [1] (setting [2]) was “able to reduce virulence”. In addition, the “inhibitory effect on virulence of U. maydis” value in experiment [1] is recorded as “concentration dependent inhibitory effect”. Also, the “virulence inhibition of U. fabae” value in the experiment with U. fabae (setting [3]) is “fully inhibit pustule formation”; in the experiment with U. fabae (setting [4]) it was “able to inhibit pustule formation”.

Take `O=[N+]([O-])c1ccc(-c2c(-c3ccccc3)n3ccccc3[n+]2[O-])cc1` [Compound 3-A]: the “Virulence inhibition of U. maydis” value in experiment [1] (setting [2]) is reported as “only mildly”. The figures for the “virulence inhibition of U. fabae” value in the experiment on U. fabae (setting [3]) and in the experiment on U. fabae (setting [4]) were “developed symptoms” and “able to inhibit pustule formation”, respectively.
